# Assay results published in article PMC5578959, “Selective LRRK2 kinase inhibition reduces phosphorylation of endogenous Rab10 and Rab12 in human peripheral mononuclear blood cells” (Scientific Reports, 2017).
# How the values were obtained:
# Test in all cases: KiNativ profiling in human PBMCs
# Type in all cases: binding
# [1] = tested on: T1, LATS1
# T1 construct: purchased ActivX Technologies (KiNativ)
# Experimental: (§1) Compounds were shipped to ActivX Technologies (San Diego, US) where LRRK2 target engagement and broad kinase profiling was performed using KiNativ™ procedures. Live cell treatment of human peripheral blood mononuclear cells (PBMCs) at two compound concentrations (1 µM and 0.1 µM) were used to evaluate and compare in vitro target engagement and kinase selectivity, respectively (see Supplementary File 1).
# [2] = tested on: T2, PLK1; conditions: Lys1
# T2 construct: purchased ActivX Technologies (KiNativ)
# Experimental: as §1
# [3] = tested on: T3, MST1; conditions: Lys1
# T3 construct: purchased ActivX Technologies (KiNativ)
# Experimental: as §1
# [4] = tested on: T4, MARK3; conditions: Lys1
# T4 construct: purchased ActivX Technologies (KiNativ)
# Experimental: as §1
# [5] = tested on: T5, PAN3; conditions: ATP
# T5 construct: purchased ActivX Technologies (KiNativ)
# Experimental: as §1
# [6] = tested on: T6, RSK1 domain2; conditions: Lys2
# T6 construct: RSK1 domain2; purchased ActivX Technologies (KiNativ)
# Experimental: as §1
# [7] = tested on: T7, PYK2
# T7 construct: purchased ActivX Technologies (KiNativ)
# Experimental: as §1
# [8] = tested on: T8, CaMK4
# T8 construct: purchased ActivX Technologies (KiNativ)
# Experimental: as §1
# [9] = tested on: T9, IKKb
# T9 construct: purchased ActivX Technologies (KiNativ)
# Experimental: as §1
# [10] = tested on: T10, NEK8; conditions: Lys2
# T10 construct: purchased ActivX Technologies (KiNativ)
# Experimental: as §1
# [11] = tested on: T11, BTK
# T11 construct: purchased ActivX Technologies (KiNativ)
# Experimental: as §1
# [12] = tested on: MAP2K1,MAP2K2; conditions: Lys2
# Experimental: as §1
# [13] = tested on: T12, CaMK1d
# T12 construct: purchased ActivX Technologies (KiNativ)
# Experimental: as §1
# [14] = tested on: CaMK2a,CaMK2b,CaMK2d,CaMK2g; conditions: Lys2
# Experimental: as §1
# [15] = tested on: T13, MLK3
# T13 construct: purchased ActivX Technologies (KiNativ)
# Experimental: as §1
# [16] = tested on: T14, PIP4K2C; conditions: ATP
# T14 construct: purchased ActivX Technologies (KiNativ)
# Experimental: as §1
# [17] = tested on: T15, RSK2 domain2; conditions: Lys2
# T15 construct: RSK2 domain2; purchased ActivX Technologies (KiNativ)
# Experimental: as §1
# [18] = tested on: T16, LATS2
# T16 construct: purchased ActivX Technologies (KiNativ)
# Experimental: as §1
# [19] = tested on: T17, MARK2; conditions: Lys1
# T17 construct: purchased ActivX Technologies (KiNativ)
# Experimental: as §1
# [20] = tested on: T18, p70S6K; conditions: Lys2
# T18 construct: purchased ActivX Technologies (KiNativ)
# Experimental: as §1
# [21] = tested on: T19, TLK1
# T19 construct: purchased ActivX Technologies (KiNativ)
# Experimental: as §1
# [22] = tested on: T20, FES; conditions: Lys1
# T20 construct: purchased ActivX Technologies (KiNativ)
# Experimental: as §1
# [23] = tested on: T21, NEK9
# T21 construct: purchased ActivX Technologies (KiNativ)
# Experimental: as §1
# [24] = tested on: T22, TAK1; conditions: Lys2
# T22 construct: purchased ActivX Technologies (KiNativ)
# Experimental: as §1
# [25] = tested on: T23, RSK2 domain1
# T23 construct: RSK2 domain1; purchased ActivX Technologies (KiNativ)
# Experimental: as §1
# [26] = tested on: T24, NDR1
# T24 construct: purchased ActivX Technologies (KiNativ)
# Experimental: as §1
# [27] = tested on: T25, MLKL; conditions: Lys1
# T25 construct: purchased ActivX Technologies (KiNativ)
# Experimental: as §1
# [28] = tested on: T26, LCK; conditions: Activation Loop
# T26 construct: purchased ActivX Technologies (KiNativ)
# Experimental: as §1
# [29] = tested on: ABL,ARG
# Experimental: as §1
# [30] = tested on: T27, CK1g2; conditions: Lys2
# T27 construct: purchased ActivX Technologies (KiNativ)
# Experimental: as §1
# [31] = tested on: T28, smMLCK
# T28 construct: purchased ActivX Technologies (KiNativ)
# Experimental: as §1
# [32] = tested on: T29, FER
# T29 construct: purchased ActivX Technologies (KiNativ)
# Experimental: as §1
# [33] = tested on: T30, IRAK1; conditions: Lys2
# T30 construct: purchased ActivX Technologies (KiNativ)
# Experimental: as §1
# [34] = tested on: T31, HPK1
# T31 construct: purchased ActivX Technologies (KiNativ)
# Experimental: as §1
structure (smiles),measurement,setting,value
Cn1cc(-c2c[nH]c3ncnc(N4CCOCC4)c23)cc1C#N [PFE-360],% Inhibition,"[1]; 0.1µM, Lys1",5.2%
same,% Inhibition,"[1]; 0.1µM, Lys2",3.2%
same,% Inhibition,"[1]; 1µM, Lys1",0.9%
same,% Inhibition,"[1]; 1µM, Lys2",0.1%
same,% Inhibition,[2]; 0.1µM,-4.1%
same,% Inhibition,[2]; 1µM,-6.7%
same,% Inhibition,[3]; 0.1µM,16.8%
same,% Inhibition,[3]; 1µM,34.1%
same,% Inhibition,[4]; 0.1µM,4.8%
same,% Inhibition,[4]; 1µM,4.7%
same,% Inhibition,[5]; 0.1µM,-22.1%
same,% Inhibition,[5]; 1µM,10.4%
same,% Inhibition,[6]; 0.1µM,-5.4%
same,% Inhibition,[6]; 1µM,-11.2%
same,% Inhibition,"[7]; 0.1µM, Activation Loop",8.4%
same,% Inhibition,"[7]; 0.1µM, Lys1",29.3%
same,% Inhibition,"[7]; 1µM, Activation Loop",7.1%
same,% Inhibition,"[7]; 1µM, Lys1",-2.2%
same,% Inhibition,"[8]; 0.1µM, Lys1",-10.2%
same,% Inhibition,"[8]; 0.1µM, Lys2",15%
same,% Inhibition,"[8]; 1µM, Lys1",-8.5%
same,% Inhibition,"[8]; 1µM, Lys2",9.5%
same,% Inhibition,"[9]; 0.1µM, Lys1",-5%
same,% Inhibition,"[9]; 0.1µM, Lys2",-6%
same,% Inhibition,"[9]; 1µM, Lys1",-10.5%
same,% Inhibition,"[9]; 1µM, Lys2",-31.2%
same,% Inhibition,[10]; 0.1µM,-1.8%
same,% Inhibition,[10]; 1µM,-12.1%
same,% Inhibition,"[11]; 0.1µM, Activation Loop",-5.6%
same,% Inhibition,"[11]; 0.1µM, Lys1",-12.3%
same,% Inhibition,"[11]; 1µM, Activation Loop",-15.5%
same,% Inhibition,"[11]; 1µM, Lys1",2.1%
same,% Inhibition,[12]; 0.1µM,13.4%
same,% Inhibition,[12]; 1µM,12.9%
same,% Inhibition,"[13]; 0.1µM, Lys1",8%
same,% Inhibition,"[13]; 0.1µM, Lys2",6.4%
same,% Inhibition,"[13]; 1µM, Lys1",-1.5%
same,% Inhibition,"[13]; 1µM, Lys2",20.2%
same,% Inhibition,[14]; 0.1µM,6.1%
same,% Inhibition,[14]; 1µM,1.2%
same,% Inhibition,"[15]; 0.1µM, Lys1",5%
same,% Inhibition,"[15]; 0.1µM, Lys2",-4.6%
same,% Inhibition,"[15]; 1µM, Lys1",-5.6%
same,% Inhibition,"[15]; 1µM, Lys2",10.2%
same,% Inhibition,"[16]; 0.1µM, peptide TLVIKEVSSEDIADMHSNLSNYHQYIVK",-22.2%
same,% Inhibition,"[16]; 0.1µM, peptide VKELPTLKDMDFLNK",-16.7%
same,% Inhibition,"[16]; 1µM, peptide TLVIKEVSSEDIADMHSNLSNYHQYIVK",-14.4%
same,% Inhibition,"[16]; 1µM, peptide VKELPTLKDMDFLNK",-2.6%
same,% Inhibition,[17]; 0.1µM,-7.4%
same,% Inhibition,[17]; 1µM,-13.8%
same,% Inhibition,"[18]; 0.1µM, Lys1",-10.2%
same,% Inhibition,"[18]; 0.1µM, Lys2",5.5%
same,% Inhibition,"[18]; 1µM, Lys1",16.6%
same,% Inhibition,"[18]; 1µM, Lys2",-0.4%
same,% Inhibition,[19]; 0.1µM,-8.9%
same,% Inhibition,[19]; 1µM,2.3%
same,% Inhibition,[20]; 0.1µM,-16.9%
same,% Inhibition,[20]; 1µM,8.5%
same,% Inhibition,"[21]; 0.1µM, Lys1",-0.5%
same,% Inhibition,"[21]; 0.1µM, Lys2",0%
same,% Inhibition,"[21]; 1µM, Lys1",3.9%
same,% Inhibition,"[21]; 1µM, Lys2",-13.2%
same,% Inhibition,[22]; 0.1µM,-0.3%
same,% Inhibition,[22]; 1µM,-5.7%
same,% Inhibition,"[23]; 0.1µM, Lys1",-10.6%
same,% Inhibition,"[23]; 0.1µM, Lys2",8.9%
same,% Inhibition,"[23]; 1µM, Lys1",-19.6%
same,% Inhibition,"[23]; 1µM, Lys2",5.7%
same,% Inhibition,[24]; 0.1µM,-3.5%
same,% Inhibition,[24]; 1µM,-20%
same,% Inhibition,"[25]; 0.1µM, ATP Loop",13.2%
same,% Inhibition,"[25]; 0.1µM, Activation Loop",9.2%
same,% Inhibition,"[25]; 0.1µM, Lys2",-0.1%
same,% Inhibition,"[25]; 1µM, ATP Loop",21.8%
same,% Inhibition,"[25]; 1µM, Activation Loop",20.3%
same,% Inhibition,"[25]; 1µM, Lys2",22.9%
same,% Inhibition,"[26]; 0.1µM, Lys1",-16.4%
same,% Inhibition,"[26]; 0.1µM, Lys2",5.8%
same,% Inhibition,"[26]; 1µM, Lys1",-6%
same,% Inhibition,"[26]; 1µM, Lys2",1.6%
same,% Inhibition,[27]; 0.1µM,2.3%
same,% Inhibition,[27]; 1µM,5.2%
same,% Inhibition,[28]; 0.1µM,-11.6%
same,% Inhibition,[28]; 1µM,-0.3%
same,% Inhibition,"[29]; 0.1µM, Activation Loop",-15.2%
same,% Inhibition,"[29]; 0.1µM, Lys1",-22.4%
same,% Inhibition,"[29]; 1µM, Activation Loop",-0.3%
same,% Inhibition,"[29]; 1µM, Lys1",1.3%
same,% Inhibition,[30]; 0.1µM,-2%
same,% Inhibition,[30]; 1µM,-13.3%
same,% Inhibition,"[31]; 0.1µM, Lys1",1.5%
same,% Inhibition,"[31]; 0.1µM, Lys2",-14.6%
same,% Inhibition,"[31]; 1µM, Lys1",-16.9%
same,% Inhibition,"[31]; 1µM, Lys2",3.3%
same,% Inhibition,"[32]; 0.1µM, Activation Loop",10%
same,% Inhibition,"[32]; 0.1µM, Lys1",-2%
same,% Inhibition,"[32]; 1µM, Activation Loop",4.9%
same,% Inhibition,"[32]; 1µM, Lys1",-3.4%
same,% Inhibition,[33]; 0.1µM,-6.1%
same,% Inhibition,[33]; 1µM,-11.8%
same,% Inhibition,"[34]; 0.1µM, Lys1",-22.3%
same,% Inhibition,"[34]; 0.1µM, Lys2",1.2%
same,% Inhibition,"[34]; 1µM, Lys1",7.8%
same,% Inhibition,"[34]; 1µM, Lys2",0%
